What was measured:
[1] = skin sensitization test (LLNA method), OECD test guide line 429; format: in vivo; details: for Stimulation Index (SI value): photopolymerizable monomers used in clear inks B to K, SI less than 3 = no problem in skin sensitization
Protocol: The LLNA method is a skin sensitization test specified as OECD test guide line 429, and as shown on page 55 in “Functional Materials” Vol. 25, No. 9 published in September, 2005, the skin sensitization is determined to have no problem when Stimulation Index (SI value) showing a degree of the skin sensitization is less than 3.

[2] = evaluation taken from MSDS; cited from earlier work

| Compound | Stimulation Index (SI value) [1] | further results |
| --- | --- | --- |
| γ-butyrolactone methacrylate | 2.1 | – |
| Polyethoxylated tetramethylolmethanetetraacrylate | 1.7 | – |
| Polyethyleneglycol#400 dimethacrylate | 1.3 | – |
| Polyethyleneglycol#600 dimethacrylate | 1.6 | – |
| C=CC(=O)OCC(C)(C)COC(=O)C=C [Neopentylglycol diacrylate, reference compound] | – | skin sensitization of photopolymerizable monomer (positive / negative grouping) ([1]; grouping printed in Table 1): Positive |
| Caprolactone-modified neopentylglycolhydroxypivalate ester | 0.9 | – |
| Caprolactone-modified dipentaerythritolhexaacrylate | – | skin sensitization (from MSDS) [2]: Negative skin |
| Tricyclodecanedimethanoldimethacrylate | 1.3 | – |

Source: US8696101B2, “Photopolymerizable inkjet black ink, and ink cartridge, inkjet printer and printed material using the ink, and method of preparing the ink” (Ricoh Company, Ltd., priority 2011, dated 2014)
